According to US20060148804A1, “Pde4 inhibitors for the treatment of neoplasms of lymphoid cells” (priority 2003, published 2006):

What was measured:
NB4 blasts = test: ATRA induced granulocytic maturation and growth inhibition of NB4 blasts; type: cell-based; details: for PICLAMILAST dependent enhancement of the ATRA-dependent induction of NBT-R: added to PICLAMILAST and ATRA
Source text: (§1) In NB4 cells, PICLAMILAST accelerates the process of morphological granulocytic maturation and enhances the ATRA-dependent induction of specific differentiation markers such as NBT-reductase (NBTR) as well as CD11b. PICLAMILAST not only enhances, but also accelerates the process of granulocytic maturation set in motion by ATRA in acute myelogenous leukemia cells, reducing the time necessary to expose cells to ATRA to obtain maximal differentiation. […] PICLAMILAST exerts differential effects on a number of transcriptional factors involved in the process of leukemic cell maturation triggered by ATRA. […] The PICLAMILAST dependent enhancement of the ATRA-dependent induction of NBT-R is suppressed by the cAMP antagonist, Rp-8Br-cAMP, and the specific PKA inhibitor H-89. […] This phenomenon is more evident when cells are treated with combinations of ATRA and the PDE4 inhibitor. […] This altogether could represent a clinically relevant finding as it may represent a useful strategy to increase the therapeutic index of ATRA by decreasing its local and systemic toxicity.

HL-60 blasts = test: ATRA induced granulocytic maturation and growth inhibition of HL-60 blasts; type: cell-based; details: together with ATRA
U937 blasts = test: ATRA induced granulocytic maturation and growth inhibition of U937 blasts; type: cell-based; details: together with ATRA
NB4 cells [1] = test: Intracellular cAMP and cAMP-dependent protein kinase (PKA) amounts in NB4 cells; type: cell-based; details: versus basal conditions
Source text: as §1

[2] = test system: retinoic acid receptor, RARalpha; test: Ligand-dependent transcriptional activity and phosphorylation of RARalpha; type: cell-based
Source text: as §1

cEBPalpha = test: Amounts of cEBPalpha in leukemic cell maturation triggered by ATRA; type: cell-based; details: in combination with the retinoid
Source text: as §1

STAT1 = test: Amounts and tyrosine phosphorylation of STAT1; type: cell-based; details: in combination with the retinoid
Source text: as §1

cEBPepsilon = test: Upregulation of cEBPepsilon; type: cell-based; details: in combination with the retinoid
Source text: as §1

[3] = test system: CREBP transcriptional factor; test: Phosphorylation state of CREBP in NB4 cells; type: cell-based
Source text: as §1

NB4 cells [4] = test: Gene expression in NB4 / myeloid cells; type: cell-based
Source text: as §1

[5] = test system: chronic lymphocytic leukemia (CLL) B-lymphocytes; details: in vitro; cited from earlier work

Which results are given for `COc1ccc(C(=O)Nc2c(Cl)cncc2Cl)cc1OC1CCCC1` [PICLAMILAST, N-(3,5-dichloropyrid-4-yl)-3-cyclopentyloxy-4-methoxybenzamide]?
growth inhibitory and cyto-differentiating activities of all trans retinoic acid (ATRA) (NB4 blasts; NB4 blasts, together with ATRA): potentiates; process of morphological granulocytic maturation (NB4 blasts; NB4 cells): accelerates; ATRA-dependent induction of CD11b (NB4 blasts; NB4 cells, with ATRA): enhances; ATRA-dependent induction of NBT-reductase (NBTR) (NB4 blasts; NB4 cells, with ATRA): enhances; time necessary to expose cells to ATRA to obtain maximal differentiation (NB4 blasts; acute myelogenous leukemia cells): reducing; growth inhibitory effect of the retinoid (NB4 blasts; acute myelogenous leukemia cells, with ATRA): increases the growth inhibitory effect of the retinoid in an additive fashion; growth inhibitory and cyto-differentiating activities of all trans retinoic acid (ATRA) (HL-60 blasts): potentiates; growth inhibitory and cyto-differentiating activities of all trans retinoic acid (ATRA) (U937 blasts): potentiates; amounts of cAMP-dependent protein kinase (PKA) (NB4 cells [1]): significant increase; amounts of intracellular cAMP (NB4 cells [1]): significant increase; PKA-dependent phosphorylation of RARalpha [2]: activated; ligand-dependent transcriptional activity of RARalpha ([2]; in combination with the retinoid): enhances; amounts of cEBPalpha (cEBPalpha): causes an increase; amounts and activation state (tyrosine phosphorylation) of STAT1 (STAT1): causes an increase; upregulation of cEBPepsilon (cEBPepsilon): no significant effect; phosphorylation state of the cAMP dependent CREBP transcriptional factor [3]: down-regulatory action; expression of cAMP- and CREBP-dependent genes, such as vinculin (NB4 cells [4]; NB4 cells): does not modulate; expression of numerous ATRA-dependent genes, including cathepsin D and syaloadhesin (NB4 cells [4]; with ATRA): enhancing action

With `CC1=C(/C=C/C(C)=C/C=C/C(C)=C/C(=O)O)C(C)(C)CCC1` [ATRA, all trans retinoic acid] as the compound, how does the “amounts of cAMP-dependent protein kinase (PKA)” value (NB4 cells [1]) read?
Its value is “Neither basal nor PICLAMILAST-induced levels of cAMP and PKA are modulated”.

What about the “amounts of intracellular cAMP” value (NB4 cells [1]) of the same compound?
The value was “Neither basal nor PICLAMILAST-induced levels of cAMP and PKA are modulated”.

With `O=S(=O)(NCCNC/C=C/c1ccc(Br)cc1)c1cccc2cnccc12` [H-89] as the compound, how does the “PICLAMILAST dependent enhancement of the ATRA-dependent induction of NBT-R” value (NB4 blasts) read?
Its value is “suppressed”.

What about the “ATRA-dependent genes whose expression is super-induced by the PDE4 inhibitor” value (NB4 cells [4]; added to PICLAMILAST and ATRA) of the same compound?
The value was “does not have the same effect on all”.

For `Cn1c(=O)c2[nH]cnc2n(C)c1=O` [Theophylline], which “apoptosis in CLL B-lymphocytes” value [5] is on record?
Its value is “induce apoptosis”.

For `Nc1ncnc2c1nc(Br)n2C1OC2COP(O)(=S)OC2C1O` (stereo not drawn) [Rp-8Br-cAMP], which “PICLAMILAST dependent enhancement of the ATRA-dependent induction of NBT-R” value (NB4 blasts) is on record?
Its value is “suppressed”.
